Laboratory results reported in ChEMBL document CHEMBL3351282, “An update on therapeutic opportunities offered by cancer glycolytic metabolism” (Bioorg Med Chem Lett, 2014).
Each block holds one compound with its values, some of them ahead of it.

Legend:
[1] = target: 6-phosphofructo-2-kinase/fructose-2,6-bisphosphatase 3 (Homo sapiens, UniProt Q16875); assay: Inhibition of PFKFB3 (unknown origin)
Alpha-enolase = Alpha-enolase (Homo sapiens, UniProt P06733); assay: Inhibition of ENO1 (unknown origin)
Pyruvate kinase PKM [2] = target: T1, Pyruvate kinase PKM (Homo sapiens, UniProt P14618); assay: Activation of pyruvate kinase PKM2 (unknown origin)
[3] = Growth inhibition of human H1299 cells; assay type: functional, NCI-H1299
[4] = Cytotoxicity against human H1299 cells assessed as reduction in cell viability; assay type: functional, cell-based; conditions: NCI-H1299
Homo sapiens = organism: Homo sapiens; assay: Inhibition of glucose transporter GLUT (unknown origin) by standard glucose uptake assay; conditions: concentration not given here
A549 = assay: Antitumor activity against human A549 cells in in-vivo xenograft model assessed as reduction in tumor volume at 10 mg/kg/day, ip; assay type: functional; conditions: route intraperitoneal
[5] = Growth inhibition of VHL deficient human RCC4 cells; assay type: functional, cell-based
[6] = Growth inhibition of VHL-positive human RCC4/VHL cells; assay type: functional, cell-based
[7] = target: T2, Monocarboxylate transporter 1 (Homo sapiens, UniProt P53985); assay: Binding affinity to MCT1 (unknown origin)
T2 sequence (P53985 whole entry): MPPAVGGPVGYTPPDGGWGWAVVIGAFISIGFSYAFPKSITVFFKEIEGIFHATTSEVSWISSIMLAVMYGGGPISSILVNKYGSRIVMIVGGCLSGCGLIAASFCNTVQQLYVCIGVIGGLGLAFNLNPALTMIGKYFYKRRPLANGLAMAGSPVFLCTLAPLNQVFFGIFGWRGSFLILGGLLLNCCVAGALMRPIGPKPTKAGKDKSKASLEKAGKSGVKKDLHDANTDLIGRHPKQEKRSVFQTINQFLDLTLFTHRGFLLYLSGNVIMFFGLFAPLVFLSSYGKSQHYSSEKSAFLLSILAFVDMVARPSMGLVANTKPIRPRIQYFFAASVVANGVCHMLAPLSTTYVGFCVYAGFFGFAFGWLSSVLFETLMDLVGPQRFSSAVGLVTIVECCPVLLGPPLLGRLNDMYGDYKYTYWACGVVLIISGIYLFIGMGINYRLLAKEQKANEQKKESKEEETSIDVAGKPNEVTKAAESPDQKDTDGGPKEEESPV

[8] = Antiproliferative activity against human MIAPaCa2 cells assessed as inhibition of cell proliferation; assay type: functional, cell-based; conditions: MIA PaCa-2
Hexokinase-2 = target: T3, Hexokinase-2 (Homo sapiens, UniProt P52789); assay: Inhibition of hexokinase 2 (unknown origin)
T3 sequence (P52789 whole entry): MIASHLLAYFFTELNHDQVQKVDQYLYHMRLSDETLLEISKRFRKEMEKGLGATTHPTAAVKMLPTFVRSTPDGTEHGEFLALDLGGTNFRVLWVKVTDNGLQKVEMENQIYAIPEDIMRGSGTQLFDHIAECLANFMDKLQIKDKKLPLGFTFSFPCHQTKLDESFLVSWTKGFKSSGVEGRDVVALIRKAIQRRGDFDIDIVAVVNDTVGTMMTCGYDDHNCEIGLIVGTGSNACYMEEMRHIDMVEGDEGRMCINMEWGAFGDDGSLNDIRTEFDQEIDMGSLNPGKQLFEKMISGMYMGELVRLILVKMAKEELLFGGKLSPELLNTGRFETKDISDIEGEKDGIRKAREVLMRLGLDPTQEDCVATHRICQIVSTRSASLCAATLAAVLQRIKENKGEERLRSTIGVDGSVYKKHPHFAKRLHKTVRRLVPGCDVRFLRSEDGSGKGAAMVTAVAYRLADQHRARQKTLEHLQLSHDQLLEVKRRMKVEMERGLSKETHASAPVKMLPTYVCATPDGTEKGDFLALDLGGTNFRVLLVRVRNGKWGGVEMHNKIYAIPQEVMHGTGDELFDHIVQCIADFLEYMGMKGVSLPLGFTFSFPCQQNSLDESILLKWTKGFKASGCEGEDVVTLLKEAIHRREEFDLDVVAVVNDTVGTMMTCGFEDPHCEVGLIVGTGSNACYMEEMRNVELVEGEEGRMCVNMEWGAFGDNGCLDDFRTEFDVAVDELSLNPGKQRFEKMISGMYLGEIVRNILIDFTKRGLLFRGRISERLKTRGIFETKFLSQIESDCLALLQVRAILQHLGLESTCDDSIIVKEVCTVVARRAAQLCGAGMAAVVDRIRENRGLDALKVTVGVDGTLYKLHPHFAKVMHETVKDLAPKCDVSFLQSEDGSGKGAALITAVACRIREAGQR

Pyruvate kinase PKM [9] = target: T1, Pyruvate kinase PKM; assay: Activation of pyruvate kinase PKM2 in human A549 cells; assay type: cell-based

T1 sequence (P14618 whole entry): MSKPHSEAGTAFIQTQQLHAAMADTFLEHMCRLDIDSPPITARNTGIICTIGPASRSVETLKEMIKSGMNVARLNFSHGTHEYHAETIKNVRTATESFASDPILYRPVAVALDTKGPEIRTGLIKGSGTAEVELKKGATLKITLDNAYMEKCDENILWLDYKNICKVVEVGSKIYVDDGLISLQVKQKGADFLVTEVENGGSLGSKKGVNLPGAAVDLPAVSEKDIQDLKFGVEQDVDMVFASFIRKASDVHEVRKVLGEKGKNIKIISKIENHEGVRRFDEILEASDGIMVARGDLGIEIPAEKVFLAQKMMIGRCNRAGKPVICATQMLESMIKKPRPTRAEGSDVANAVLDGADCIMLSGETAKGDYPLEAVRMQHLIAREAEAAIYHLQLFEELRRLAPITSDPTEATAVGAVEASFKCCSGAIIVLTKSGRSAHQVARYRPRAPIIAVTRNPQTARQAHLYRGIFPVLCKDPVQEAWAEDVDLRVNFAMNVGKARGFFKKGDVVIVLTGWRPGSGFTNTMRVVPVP
6-phosphofructo-2-kinase/fructose-2,6-bisphosphatase 3, sequence (Q16875 whole entry): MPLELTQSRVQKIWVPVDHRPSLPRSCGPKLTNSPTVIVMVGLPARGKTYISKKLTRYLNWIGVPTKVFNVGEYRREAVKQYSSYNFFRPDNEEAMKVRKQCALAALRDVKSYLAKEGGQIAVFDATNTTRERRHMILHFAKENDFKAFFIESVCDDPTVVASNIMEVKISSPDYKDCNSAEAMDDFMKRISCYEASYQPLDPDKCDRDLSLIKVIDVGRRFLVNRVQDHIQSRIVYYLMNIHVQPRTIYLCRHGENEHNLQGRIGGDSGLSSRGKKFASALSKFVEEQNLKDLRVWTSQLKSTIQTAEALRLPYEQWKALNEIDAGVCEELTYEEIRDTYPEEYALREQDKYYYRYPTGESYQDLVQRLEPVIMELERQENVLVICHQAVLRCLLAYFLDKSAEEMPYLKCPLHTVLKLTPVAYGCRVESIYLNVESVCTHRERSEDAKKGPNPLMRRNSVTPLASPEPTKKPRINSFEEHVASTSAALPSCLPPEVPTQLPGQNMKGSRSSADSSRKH
Alpha-enolase, sequence (P06733 whole entry): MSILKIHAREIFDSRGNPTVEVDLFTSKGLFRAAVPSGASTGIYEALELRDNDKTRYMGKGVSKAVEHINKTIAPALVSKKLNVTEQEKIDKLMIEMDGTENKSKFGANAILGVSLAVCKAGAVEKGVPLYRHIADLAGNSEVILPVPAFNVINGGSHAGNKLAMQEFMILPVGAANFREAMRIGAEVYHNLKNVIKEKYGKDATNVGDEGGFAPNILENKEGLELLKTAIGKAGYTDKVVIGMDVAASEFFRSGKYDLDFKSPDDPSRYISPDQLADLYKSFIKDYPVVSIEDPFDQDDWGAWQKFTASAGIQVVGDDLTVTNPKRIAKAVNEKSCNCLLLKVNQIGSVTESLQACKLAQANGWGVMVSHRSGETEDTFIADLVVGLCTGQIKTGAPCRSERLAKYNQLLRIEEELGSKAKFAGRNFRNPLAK

IC50 [1]: 0.207 µM
SMILES: O=C(/C=C/c1ccc2ccccc2n1)c1ccncc1

inhibition (Homo sapiens): 93%
SMILES: O=C(Oc1cccc(F)c1OC(=O)c1cccc(O)c1)c1cccc(O)c1
growth inhibition (GI) [3]: 41%
IC50 [4]: 10 µM
inhibition in vivo at 10 mg/kg/day (A549): 70%

IC50 [1]: 22.9 µM
SMILES: O=C(/C=C/c1cccnc1)c1ccncc1

IC50 (Hexokinase-2): < 316 nM
SMILES: Cc1ccc(S(=O)(=O)NC[C@H]2O[C@@H](O)[C@H](NC(=O)/C=C/c3ccc(Cl)c(Cl)c3)[C@@H](O)[C@@H]2O)cc1

AC50 (Pyruvate kinase PKM [9]): 45 nM
AC50 (Pyruvate kinase PKM [2]): 17 nM
SMILES: COc1ccccc1N1CCN(C(=O)c2ccc(NS(=O)(=O)c3cccc4cccnc34)cc2)CC1

Second part, the compound before the results:

SMILES: NCCOCCOCCNC(=O)Cc1ccc(Nc2nc(NCc3ccc(F)cc3)nc(NCC3CCCCC3)n2)cc1
IC50 (Alpha-enolase): 576 nM

SMILES: CS(=O)(=O)N1CCc2cc(S(=O)(=O)c3ccc4c(c3)OCCO4)ccc21
AC50 (Pyruvate kinase PKM [2]): 45 nM

SMILES: NCCOCCOCCOCCOCCOCCOCCCc1ccc(S(=O)(=O)NCc2ccc(C(=O)Nc3cccnc3)cc2)cc1
IC50 [5]: 7.9 µM
IC50 [6]: > 40 µM

SMILES: Cc1[nH]nc(C(F)(F)F)c1Cc1sc2c(c1C(=O)N1C[C@](C)(O)CO1)c(=O)n(C)c(=O)n2C(C)C [AZD3965]
Kd [7]: 1.6 nM

SMILES: O=C1CC(c2ccc(N3CCOCC3)cc2)(c2ccsc2)NC(=O)C1Sc1ccccc1Cl (stereo not given)
EC50 [8]: 250 nM
